Source: PubChem BioAssay AID1508610 (The Scripps Research Institute Molecular Screening Center, 2020)
Calls of active or inactive are those of the source. How the calls were made is not given here.

Target: G-protein coupled receptor 151 (Homo sapiens) (UniProt Q8TDV0)
Experiment: GPR151 activator potency, dose response, cell-based (AID 1508610)
Conditions: cell-based GPR151 activation reporter

Chain of G-protein coupled receptor 151 (Homo sapiens) (Q8TDV0 whole entry, looked up): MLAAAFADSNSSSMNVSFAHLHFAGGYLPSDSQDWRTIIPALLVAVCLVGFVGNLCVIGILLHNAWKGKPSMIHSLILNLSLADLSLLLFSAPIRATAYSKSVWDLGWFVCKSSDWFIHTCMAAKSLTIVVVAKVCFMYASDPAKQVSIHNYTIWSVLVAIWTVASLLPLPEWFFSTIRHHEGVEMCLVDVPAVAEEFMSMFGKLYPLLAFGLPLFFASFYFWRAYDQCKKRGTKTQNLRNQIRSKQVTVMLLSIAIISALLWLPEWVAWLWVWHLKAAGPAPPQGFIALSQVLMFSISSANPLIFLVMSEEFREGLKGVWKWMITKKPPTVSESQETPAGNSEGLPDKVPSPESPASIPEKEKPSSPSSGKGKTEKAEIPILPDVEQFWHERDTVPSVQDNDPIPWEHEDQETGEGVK

Row | Structure (SMILES) | EC50
1 | CSc1nc(-c2ccccc2)cn1-c1ccc(F)cc1 | > 35.5 µM (inactive)
2 | Cc1ccc(NC(=O)C(CC(=O)O)C2CCCO2)cc1 (stereo not drawn) | > 28 µM (inactive)
3 | O=C(CSc1nc(NC2CCCCC2)c2ccccc2n1)c1ccc(F)cc1 | > 28.1 µM (inactive)
4 | O=C1/C(=C\c2ccncc2)SC(=S)N1Cc1ccccc1 | inactive
5 | O=C1[C@H]2[C@H]3[C@H](O)[C@H](O)C/C(=N\OCc4ccccc4)[C@H]3CC[C@H]2C(=O)N1C1CCCCC1 | inactive
6 | Cc1ccc(-c2nnc3sc(NC(=O)CC(C)C)nn23)cc1 | > 28 µM (inactive)
7 | CCOC(=O)c1ccc(NC(=O)CSc2cn(Cc3ccccc3Cl)c3ccccc23)cc1 | > 24.2 µM (inactive)
8 | CCOc1ccccc1CN1CCN(Cc2cccc(OC)c2)CC1CCO (stereo not drawn) | > 28 µM (inactive)
9 | [O-]/[N+](=C\c1ccncc1)c1ccc(Cl)cc1 | > 28.9 µM (inactive)
10 | CN1CCN(c2cc(-c3cn[nH]c3)ccc2NC(=O)Cc2cccc(Cl)c2)CC1 | 1.25 µM
11 | Cc1ccc(NC(=O)/C(C#N)=C\c2ccccc2O)cc1C | > 28 µM (inactive)
12 | Cc1ccc(NC(=O)CN(C)S(=O)(=O)c2ccc(Br)cc2)cc1Cl | > 28 µM (inactive)
13 | Cn1ncc2c(NCCc3ccc(Cl)cc3Cl)ncnc21 | > 27.8 µM (inactive)
14 | c1ccc2[nH]c(-c3nc4ccccc4o3)nc2c1 | > 28.6 µM (inactive)
15 | Cc1nc2ccccc2n1CC(=O)N1CCc2c(nc(N3CCCC3)[nH]c2=O)C1 | > 28 µM (inactive)
16 | O=C(O)c1cccc(COc2ccc(CO)cc2Br)c1 | > 28 µM (inactive)
17 | COCCn1c(C)cc(C(=O)COC(=O)c2cccc(O)c2)c1C | > 30.4 µM (inactive)
18 | Fc1ccc2nc(N3CCN(c4nc5ccccc5s4)CC3)sc2c1 | > 28 µM (inactive)
19 | N#Cc1sc(NC(=O)c2ccc(F)c(F)c2)nc1Cl | > 28 µM (inactive)
20 | COc1ccc(CCn2c(=S)[nH]c3cc(C(=O)N4CCOCC4)ccc3c2=O)cc1OC | > 22.2 µM (inactive)
21 | CCCCCCCCCCCCCC/C(C(=O)O)=C(\C)C(=O)O | > 28 µM (inactive)
22 | CC(C)CCN1C(=O)C(C)(C)COc2cc(NC(=O)c3ccc4c(c3)OCO4)ccc21 | > 28 µM (inactive)
23 | COc1ccc(S(=O)(=O)N(C)C)c(Cl)c1Cl | > 28 µM (inactive)
24 | O=C1c2ccccc2C(Nc2ccc(Cl)cc2)N1c1cccnc1 (stereo not drawn) | > 28 µM (inactive)
25 | Cc1cc(Br)ccc1Nc1nc(-c2ccccc2F)nc2ccccc12 | > 23.5 µM (inactive)

Row | Structure (SMILES) | EC50
26 | c1ccc(-c2ccc(-c3nc(-c4ccccn4)no3)cc2)cc1 | > 24.8 µM (inactive)
27 | COc1ccc(C(=O)/C=C\N2CCOCC2)cc1 | > 28 µM (inactive)
28 | CCN(CC)S(=O)(=O)c1ccc(C(=O)Nc2ccc(Cc3ccncc3)cc2)cc1 | > 25 µM (inactive)
29 | Cc1ccc(NC(=O)CCNc2c(N3CCCC3)c(=O)c2=O)cc1Cl | > 28 µM (inactive)
30 | CCOC(=O)COc1ccc2c(=O)c(Oc3cccc(OC)c3)coc2c1 | > 28 µM (inactive)
31 | CC1CCCC(NCc2c(C(=O)O)n(Cc3ccccc3F)c3ccccc23)C1C (stereo not drawn) | > 28 µM (inactive)
32 | CCOC(=O)c1c(NC(=O)C(C)Sc2cn(C)c3ccccc23)sc2c1CCCCC2 (stereo not drawn) | inactive
33 | CCOC(=O)c1c(NC(=O)C(C)C)sc(C(C)=O)c1C | inactive
34 | Cc1ccccc1-n1c(=O)cc(NCCCn2ccnc2)[nH]c1=O | > 28 µM (inactive)
35 | CCOC(=O)c1cnc2c(OC)cccc2c1NC1CCCCCC1 | inactive
36 | Cc1ccc(C(=O)Nc2ccc([N+](=O)[O-])cc2)c(Cl)c1 | > 28 µM (inactive)
37 | CCN(CC)S(=O)(=O)c1ccc(-c2csc(=Nc3ccccc3OC)n2CC)cc1 | > 17.3 µM (inactive)
38 | OC(c1cccnc1)c1ccc2c(c1)CN(Cc1cccc(Cl)c1)CCO2 (stereo not drawn) | > 28 µM (inactive)
39 | O=C(Nc1nnc(SCc2cccc(F)c2)s1)C1CC1 | > 29 µM (inactive)
40 | O=C(Nc1noc2ccccc12)c1c(F)cccc1F | > 28 µM (inactive)
41 | Cc1ccc(-c2nc(-c3ccccn3)no2)cc1 | > 31.3 µM (inactive)
42 | Cc1ccccc1N(CC(=O)N1CCOCC1)S(=O)(=O)c1ccc(Cl)cc1 | > 28 µM (inactive)
43 | COc1ccccc1N(CC(=O)Nc1ccccc1C(=O)NCC(C)C)S(C)(=O)=O | > 28 µM (inactive)
44 | O=[N+]([O-])c1ccc(NS(=O)(=O)Cc2ccccc2)c([N+](=O)[O-])c1 | > 28 µM (inactive)
45 | COc1ccc(CCN2C(=O)c3ccc(Oc4ccc(Nc5ncnc6ccccc56)cc4)cc3C2=O)cc1OC | 2.42 µM
46 | COc1cc([N+](=O)[O-])ccc1NC(=O)Nc1ccc(Cl)cc1F | > 28 µM (inactive)
47 | Cc1ccc2nc(/C(C#N)=C\c3ccccc3OCC#N)[nH]c2c1 | > 28 µM (inactive)
48 | COc1ccc(-c2ccc(C(=O)NCc3cccnc3)s2)cc1 | > 28.2 µM (inactive)
49 | COc1ccc(-c2ccc(C(=O)NCCc3ccc(O)cc3)s2)cc1 | > 27.7 µM (inactive)
50 | CCOC(=O)N1CCN(C(=S)Nc2ccc(C)cc2)CC1 | > 28 µM (inactive)

Row | Structure (SMILES) | EC50
51 | N#Cc1nc2[nH]c(-c3ccccc3)cc(=O)n2c1C#N | > 30 µM (inactive)
52 | Cc1cc(C)c(C#N)c(Oc2cccc(N)c2)n1 | > 28 µM (inactive)
53 | COc1ccc(-c2nc3ccccc3[nH]2)cc1 | > 35 µM (inactive)
54 | COc1ccc(OC)c(C(C)NC(=O)c2ccccc2Cl)c1 (stereo not drawn) | > 28 µM (inactive)
55 | Clc1ccccc1/C=C/c1nc(-c2ccccn2)no1 | > 28 µM (inactive)
56 | CCC(Sc1nc(NC2CCCCC2)c2ccccc2n1)C(=O)Nc1ccc2c(c1)OCO2 (stereo not drawn) | > 20.6 µM (inactive)
57 | Oc1csc(Cc2nc(-c3ccccc3F)cs2)n1 | > 28.7 µM (inactive)
58 | COc1ccc(CNC(=O)CCCn2cccc2)cc1 | > 28 µM (inactive)
59 | COc1ccc(-n2nc3c(c2NC(=O)CCC2CCCC2)CS(=O)(=O)C3)cc1 | > 28.2 µM (inactive)
60 | C=CCN1C(=O)/C(=C/c2ccc(OCC(=O)O)cc2)S/C1=N/c1nccs1 | > 28 µM (inactive)
61 | N#Cc1ccc(NC(=O)COC(=O)CCC(=O)c2ccc3c(c2)OCCO3)cc1 | > 28.4 µM (inactive)
62 | CCOC(=O)N1CCc2nc(NC(=O)c3ccnn3CC)sc2C1 | > 28 µM (inactive)
63 | COc1cc(Nc2cc(-c3ccc(C(N)=O)cc3)nc(N)n2)cc(OC)c1OC | > 25.6 µM (inactive)
64 | O=[N+]([O-])c1ccc(/C=C/c2ccc(O)cc2)cc1 | > 28.9 µM (inactive)
65 | COc1ccccc1C1c2c(oc3ccc(C)cc3c2=O)C(=O)N1CCN1CCOCC1 (stereo not drawn) | 0.00152 µM
66 | CN(C)CCN(C)C(=O)c1cccc(OC2CCN(C3CCSCC3)CC2)c1 | > 28 µM (inactive)
67 | O=C(O)c1ccc(-n2cc(-c3ccc(Cl)cc3)cn2)cc1 | > 28 µM (inactive)
68 | COc1cc(C2Nc3ccccc3NC3=C2C(=O)CC(c2ccc4c(c2)OCO4)C3)ccc1OC(C)=O (stereo not drawn) | > 23.3 µM (inactive)
69 | Cc1sc2ncnc(N3CCN(c4ccccn4)CC3)c2c1C | > 32.6 µM (inactive)
70 | CCOc1ccc(NS(=O)(=O)c2ccc3c(c2)n(C)c(=O)n3C)cc1 | > 28 µM (inactive)
71 | O=C1C2C3C=CC(C3)C2C(=O)N1Nc1c(Cl)cc(Cl)cc1Cl (stereo not drawn) | > 28 µM (inactive)
72 | COc1ccc(-c2ccc(C(=O)NC3CC3)s2)cc1 | > 28 µM (inactive)
73 | COc1cccc(-c2ccc(SCC(=O)Nc3cc(C)on3)nn2)c1 | > 28.3 µM (inactive)
